Active and inactive are the calls of the source. How the calls were made is not given here.

For the experiment, the target named is Chaperone protein DnaK (Escherichia coli (strain K12)) (UniProt P0A6Y8). Put plainly: E. coli DnaK SBD ligand binding – biophysical, NMR, chaperone (AID 1033). To be noted: Purified DnaK SBD.
Chain of Chaperone protein DnaK (Escherichia coli (strain K12)) (P0A6Y8 whole entry, looked up): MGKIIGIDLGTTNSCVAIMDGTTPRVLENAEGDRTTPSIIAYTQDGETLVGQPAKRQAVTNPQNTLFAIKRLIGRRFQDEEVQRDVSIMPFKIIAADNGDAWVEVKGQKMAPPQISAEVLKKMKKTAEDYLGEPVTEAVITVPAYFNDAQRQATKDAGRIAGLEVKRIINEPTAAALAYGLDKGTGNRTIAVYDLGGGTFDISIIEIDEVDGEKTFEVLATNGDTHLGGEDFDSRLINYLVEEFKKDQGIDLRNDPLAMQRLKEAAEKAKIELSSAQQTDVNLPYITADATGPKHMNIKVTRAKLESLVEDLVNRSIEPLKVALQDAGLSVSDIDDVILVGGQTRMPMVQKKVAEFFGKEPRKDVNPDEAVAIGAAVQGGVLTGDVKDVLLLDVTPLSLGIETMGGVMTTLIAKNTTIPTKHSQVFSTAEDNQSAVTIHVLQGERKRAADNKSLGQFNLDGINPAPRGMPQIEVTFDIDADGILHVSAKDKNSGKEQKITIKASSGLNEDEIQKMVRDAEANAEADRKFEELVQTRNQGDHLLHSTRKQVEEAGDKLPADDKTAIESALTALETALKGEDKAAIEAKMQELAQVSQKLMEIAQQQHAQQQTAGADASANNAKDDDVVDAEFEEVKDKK
Usually Kd stands for the constant that tells how readily two partners part at equilibrium. With `COc1cc(OC)c2c(=O)c(O)c(-c3ccc(OC)c(OC)c3)oc2c1`, the Kd is > 4 mM (inactive).

For `CC1(C)CC[C@]2(C(=O)O)CC[C@]3(C)C(=CCC4[C@@]5(C)CC[C@@H](O)C(C)(C)C5CC[C@]43C)C2C1` (stereo not given in full), the Kd is > 4 mM (inactive).

As for `CCOC(=O)c1cnc2cc(C)nn2c1C`, the Kd is > 4 mM (inactive).

For `Cc1nc2ccccc2c(=O)n1CCCO`, the Kd was > 4 mM (inactive).

In the case of `Cc1ccc(N)nc1`, the Kd was > 4 mM (inactive).

`NC1=NN(c2ccccc2)C(=O)C1`: the Kd was > 4 mM (inactive).

On to `CC(C)=CC(=O)Nc1ccccc1Br`, for which the Kd was > 4 mM (inactive).

Take `O=C(Nc1nncs1)c1c(F)c(F)c(F)c(F)c1F`: the Kd is > 4 mM (inactive).

Take `C/C=C(\C)c1nnc(NC(=O)C(C)C)s1`: the Kd was > 4 mM (inactive).

Regarding `Nc1cncc(C(=O)O)c1`, the Kd is > 4 mM (inactive).

With `CC(=O)Oc1ccc(-c2nc(-c3cccnc3)no2)cc1`, the Kd was > 4 mM (inactive).

On to `O=C(NC(=O)N1CCOCC1)c1ccccc1`, for which the Kd was > 4 mM (inactive).

`Nc1cccc2cccnc12`: the Kd is > 4 mM (inactive).

On to `CC(=O)Nc1ccc(C)cc1NC(C)=O`, for which the Kd is > 4 mM (inactive).

Turning to `Cc1nn(CC(=O)Nc2ccccn2)c(=O)c2ccccc12`, the Kd is > 4 mM (inactive).

As to `Cc1cc(C)n(S(=O)(=O)c2cc(C)c(C)cc2C)n1`, the Kd is > 4 mM (inactive).

As for `NCc1ccc(S(N)(=O)=O)cc1`, the Kd was > 4 mM (inactive).

As for `Cn1c(-c2ccccc2F)n[nH]c1=S`, the Kd is > 4 mM (inactive).

On to `FC(F)(F)c1cc(-c2ccco2)nc(N2CCOCC2)n1`, for which the Kd was > 4 mM (inactive).

For the molecule `Cn1c(SCc2ccon2)nc2ccccc2c1=O`, the Kd was > 4 mM (inactive).

As for `CSc1nc(-c2ccccc2)ccc1C(N)=O`, the Kd is > 4 mM (inactive).

Turning to `CN(C)S(=O)(=O)c1cccc(N)c1`, the Kd was > 4 mM (inactive).

With `NC(=O)Cc1nc(-c2ccccc2)cs1`, the Kd is > 4 mM (inactive).

With `COc1ccc(/C=N/n2cn[nH]c2=S)cc1`, the Kd is > 4 mM (inactive).

For the molecule `c1n[nH]cc1-c1cn[nH]c1`, the Kd was > 4 mM (inactive).

Take `CC(C)=NNC(=O)C(=O)Nc1ccc(F)cc1`: the Kd was > 4 mM (inactive).

Regarding `CCCNC(CC(=O)Nc1cccnc1)C(=O)O` (stereo not given), the Kd is > 4 mM (inactive).

With `CC(=O)NC12CC3CC(CC(O)(C3)C1)C2`, the Kd was > 4 mM (inactive).

In the case of `CC(C)=NNC(=O)C(=O)NC(C)(C)C`, the Kd is > 4 mM (inactive).

Turning to `COC(=O)[C@@H]1OC(=O)C2OC23[C@@]1(C)CCC1[C@@]2(C)CCC(=O)C(C)(C)C2C[C@@H](OC(C)=O)[C@]13C` (stereo not given in full), the Kd is > 4 mM (inactive).

On to `O=C(O)c1ncoc1-c1ccccc1`, for which the Kd is > 4 mM (inactive).

Take `O=C1CC(=O)N(c2ccccc2F)C(=S)N1`: the Kd was > 4 mM (inactive).

On to `O=C1CN(C(=O)c2ccccc2)c2ccccc2N1`, for which the Kd is > 4 mM (inactive).

Take `CCc1noc(C)c1C(=O)Nc1ncc(C)s1`: the Kd was > 4 mM (inactive).

Consider `Nc1cccc2c(=O)[nH][nH]c(=O)c12`, for which the Kd was > 4 mM (inactive).

On to `Cc1occc1C(=O)Nc1ccc(C(N)=O)cc1`, for which the Kd was > 4 mM (inactive).

For `COc1c2ccoc2nc2c(OC)c(OCC(O)C(C)(C)O)ccc12` (stereo not given), the Kd was > 4 mM (inactive).

As for `CCN1CCc2c(sc(N)c2C(N)=O)C1`, the Kd was > 4 mM (inactive).

In the case of `C[C@@H]1CC[C@@]2(NC1)O[C@H]1C[C@H]3C4CC=C5C[C@@H](O)CC[C@]5(C)C4CC[C@]3(C)C1[C@@H]2C` (stereo not given in full), the Kd was > 4 mM (inactive).

As to `COc1ccc(C(=O)CC(=O)O)c2c1C=CC(C)(C)O2`, the Kd was > 4 mM (inactive).

With `C/C=C(\C)C(=O)O[C@H]1C[C@@H](OC(C)=O)[C@@]2(C(=O)OC)CO[C@@H]3C2[C@]12CO[C@](O)(C(=O)OC)[C@H]2[C@](C)(C12O[C@@]1(C)[C@H]1C[C@@H]2OC2OC=C[C@@]21O)[C@@H]3O` (stereo not given in full), the Kd was > 4 mM (inactive).

In the case of `O=C(NC1=NCCS1)c1csc2ccccc12`, the Kd was > 4 mM (inactive).

`O=C(c1cc(-c2ccccc2)on1)N1CCCC1`: the Kd is > 4 mM (inactive).

As for `O=C(Cc1ccc(F)cc1)Nc1ncccn1`, the Kd is > 4 mM (inactive).

Take `Cc1ccc(S(=O)(=O)/N=C2\NC(=O)CS2)cc1`: the Kd was > 4 mM (inactive).

`CC(C)(C)c1cc(CN)c(C(=O)O)o1`: the Kd was > 4 mM (inactive).

As to `O=C(c1ccccc1F)N1CCN(c2ccccc2)CC1`, the Kd was > 4 mM (inactive).

For `CSc1nc2cc(F)c(F)cc2n1C`, the Kd was > 4 mM (inactive).

Consider `COc1ccc2c(c1)OCc1c-2oc2cc(OC)ccc12`, for which the Kd is > 4 mM (inactive).

Take `Cc1noc(C)c1C(=O)Nc1ccc2c(c1)CCC2`: the Kd was > 4 mM (inactive).

On to `O=C(O)c1cc2ccccc2cn1`, for which the Kd is > 4 mM (inactive).

On to `Cn1c(=O)c2ccccc2n(Cc2ccccc2F)c1=O`, for which the Kd is > 4 mM (inactive).

In the case of `Nc1ncnc2nc[nH]c12`, the Kd was > 4 mM (inactive).

On to `O=C(NC1=NCCS1)c1cccc(F)c1`, for which the Kd was > 4 mM (inactive).

Regarding `O=C(NC(O)C(=O)c1ccccc1)c1ccco1` (stereo not given), the Kd is > 4 mM (inactive).

Turning to `S=c1[nH]nc(-c2cccnc2)n1C1CCCCC1`, the Kd is > 4 mM (inactive).

Consider `S=C(Nc1ccc2nccnc2c1)N1CCOCC1`, for which the Kd was > 4 mM (inactive).

On to `CN(C)CCCN1CNC(=S)NC1`, for which the Kd was > 4 mM (inactive).

Regarding `COc1cc2ccc(=O)oc2c(OC)c1OC`, the Kd was > 4 mM (inactive).

Regarding `COC(=O)C[C@@H]1C2(C)C(=O)[C@@H](CC3=C4C=C(OC)O[C@@H](c5ccoc5)[C@]4(C)CCC32)[C@H](O)C1(C)C` (stereo not given in full), the Kd was > 4 mM (inactive).

Regarding `Cc1cc(=O)n(CC(C)C)c(O)c1C#N`, the Kd was > 4 mM (inactive).

`CC(C)(O)CC[C@@H](O)[C@](C)(O)C1CC[C@@]2(O)C3=CC(=O)C4C[C@@H](O)[C@@H](O)C[C@]4(C)C3CC[C@]12C` (stereo not given in full): the Kd was > 4 mM (inactive).

For `CN1CCN(C(=O)Nc2cccc3ccccc23)CC1`, the Kd was > 4 mM (inactive).

`CC(=O)C1CC[C@H]2C3CC[C@H]4C[C@H](O)CC[C@]4(C)C3CC[C@]12C` (stereo not given in full): the Kd is > 4 mM (inactive).

Turning to `NC(=O)c1ccccc1NC(=O)c1cccnc1`, the Kd is > 4 mM (inactive).

`Cc1cc(C)n2c(SCc3c(C)noc3C)nnc2n1`: the Kd is > 4 mM (inactive).

`S=C(c1ccc2c(c1)OCO2)N1CCCC1`: the Kd is > 4 mM (inactive).

As for `COc1cc(OC)c2c(c1)O[C@H](c1ccc(OC)c(OC)c1)[C@@H](O)C2`, the Kd is > 4 mM (inactive).

For `Cn1ccnc1SCc1cc(=O)[nH]c2ccccc12`, the Kd is > 4 mM (inactive).

As to `NC(=O)C1CCN(c2nccc(C(F)(F)F)n2)CC1`, the Kd was > 4 mM (inactive).

As to `CCOCC(=O)NCc1n[nH]c(=O)c2ccccc12`, the Kd was > 4 mM (inactive).

For the molecule `CCn1c(C)c(C(C)=O)c(N2CCOCC2)nc1=S`, the Kd was > 4 mM (inactive).

Consider `Cc1noc(C)c1C(=O)Nc1ccccn1`, for which the Kd is > 4 mM (inactive).

For `Cc1occc1C(=O)Nc1ccc2c(c1)OCO2`, the Kd was > 4 mM (inactive).

On to `CN1CCN(C2CCSC2)CC1` (stereo not given), for which the Kd is > 4 mM (inactive).

As for `CC(=O)Nc1cccc(Cn2cccn2)c1`, the Kd was > 4 mM (inactive).

`O=C(Nn1cnnc1)c1cc2c(s1)CCCC2`: the Kd is > 4 mM (inactive).

For `COc1cc([C@@H]2c3cc4c(cc3C(OC3O[C@@H]5COC(C)O[C@H]5[C@H](O)[C@H]3O)C3COC(=O)[C@@H]32)OCO4)cc(OC)c1O` (stereo not given in full), the Kd was > 4 mM (inactive).

Regarding `O=C(Cc1cccs1)N1CCOCC1`, the Kd was > 4 mM (inactive).

As to `COC(=O)C(O)[C@@H]1C2(C)C(=O)[C@@H](CC3=C4CC(=O)O[C@@H](c5ccoc5)[C@]4(C)CCC32)[C@H](OC(C)=O)C1(C)C` (stereo not given in full), the Kd is > 4 mM (inactive).

On to `CCc1sc(C(=O)NC)cc1Br`, for which the Kd is > 4 mM (inactive).

As to `COCc1nn2c(N)c(C#N)cnc2c1-c1ccccc1`, the Kd was > 4 mM (inactive).

In the case of `O=C(Nn1cnnc1)c1ccccc1Cl`, the Kd is > 4 mM (inactive).

For `CC(=O)Nc1ccc(-c2nc(C)c(C(C)=O)n2O)cc1`, the Kd was > 4 mM (inactive).

As to `O=C1C2C3C=CC(C3)C2C(=O)N1c1cccnc1` (stereo not given), the Kd is > 4 mM (inactive).

Regarding `Cc1cc(O)c2c(c1O)C(=O)c1c(O)cc(C)c(O)c1C2=O`, the Kd was > 4 mM (inactive).

For the molecule `c1ccc(-c2csc3ncn4nnnc4c23)cc1`, the Kd is > 4 mM (inactive).

`Nc1nc(CSc2ncn(-c3ccccc3)n2)cs1`: the Kd was > 4 mM (inactive).

Regarding `Cc1csc(NC(=O)c2ccoc2C)n1`, the Kd is > 4 mM (inactive).

`NC12CC3CC(C1)CC(O)(C3)C2`: the Kd was > 4 mM (inactive).

On to `c1ccc(-c2nsc(N3CCCNCC3)n2)cc1`, for which the Kd was > 4 mM (inactive).

Take `CCn1nnc(NC(=O)c2ccccc2Br)n1`: the Kd was > 4 mM (inactive).

On to `O=C(O)c1cnc2n(c1=O)CCS2`, for which the Kd was > 4 mM (inactive).

With `NC(=O)CSc1ccc(Br)cc1`, the Kd is > 4 mM (inactive).

As for `CC(C)CCn1cnc2c1c(=O)n(C)c(=O)n2C`, the Kd was > 4 mM (inactive).

Regarding `Cc1ccn(S(=O)(=O)c2ccc(F)cc2)n1`, the Kd is > 4 mM (inactive).

On to `CCSc1nc2ccccc2n1CC(N)=O`, for which the Kd was > 4 mM (inactive).

As to `COc1cc(C2NC(=S)NC(C)=C2C(C)=O)ccc1O` (stereo not given), the Kd is > 4 mM (inactive).

Take `O=C(O)C1CSC(c2ccccc2)N1` (stereo not given): the Kd is > 4 mM (inactive).

As for `CC1=C(/C=C/C(C)=C/C=C/C(C)=C/CO)C(C)(C)CCC1`, the Kd is > 4 mM (inactive).

The values above are taken from PubChem BioAssay AID1033 (Sanford-Burnham Center for Chemical Genomics, 2008).
